# Assay results: patent US10221163B2 (priority 2015, dated 2019)
# pIC50: −log10 of the molar value.
# Columns and labels:
# [1] = tested on: MB 5919 Trans pFlp-Vim2 plasmid (OprD+, efflux+); assay: microbe, parasite or virus in culture; format: cell-based, Pseudomonas aeruginosa
# [2] = tested on: Pseudomonas aeruginosa MB 5919 (OprD+, efflux+); assay: microbe, parasite or virus in culture; format: cell-based
# [3] = tested on: MB 9798: MB 5919 Trans IMP1 plasmid (OprD+, efflux+); assay: microbe, parasite or virus in culture; format: cell-based, Pseudomonas aeruginosa
# [4] = tested on: MB 9799: MB 5890 Trans IMP1 plasmid (OprD+, efflux−); assay: microbe, parasite or virus in culture; format: cell-based, Pseudomonas aeruginosa
# [5] = tested on: MB 5890 Trans pFlp-Vim2 plasmid (OprD+, efflux−); assay: microbe, parasite or virus in culture; format: cell-based, Pseudomonas aeruginosa
# [6] = tested on: MB9862: MB 5890 Trans pFlp-Vim1 (OprD+, efflux−); assay: microbe, parasite or virus in culture; format: cell-based, Pseudomonas aeruginosa
# [7] = tested on: Pseudomonas aeruginosa MB 5890 (OprD+, efflux−); assay: microbe, parasite or virus in culture; format: cell-based
# [8] = tested on: MB 9861: MB 5919 Trans pFlp-Vim1 plasmid (OprD+, efflux+); assay: microbe, parasite or virus in culture; format: cell-based, Pseudomonas aeruginosa
# [9] = tested on: Pseudomonas aeruginosa efflux+ (MB9798), IMP-1; format: cell-based; parameters: Concentration of metallo-β-lactamase inhibitor which restores susceptibility of efflux + (MB9798) strain to imipenem: unit not given here; conditions: efflux+ MB9798; imipenem at 2 μg/mL; in the presence of a class A, C, D serine β-lactamase inhibitor closely related to relebactam
# Method in brief: (§1)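 Microbroth MIC tests in PAO1-background strains with fixed imipenem and/or ceftazidime, usually at the CLSI breakpoint, plus fixed class A/C β-lactamase inhibitor against AmpC. MBL inhibitor titrated; concentration restoring susceptibility recorded and compared as fold difference between efflux+ MB9798 and efflux− MB9799.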
# [10] = tested on: Pseudomonas aeruginosa efflux− (MB9799), IMP-1; format: cell-based; conditions: efflux− MB9799; imipenem at 2 μg/mL; in the presence of a class A, C, D serine β-lactamase inhibitor closely related to relebactam
# Method in brief: as §1
# [11] = tested on: Serratia marcescens expressing IMP-1 (CL5741); format: cell-based; conditions: IMP-1 strain CL5741, with imipenem 1 μg/ml, 95% inhibition of bacterial growth
# Method in brief: (§2)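 Clinical isolates (E. coli NDM-1, S. marcescens IMP-1, K. pneumoniae VIM-1) were diluted 1:100 from saline suspension into 1.1×CAMHB and exposed to test compound with imipenem at 1 μg/ml. Plates were incubated at 35° C for 22 hours to 24 hours, and growth was read by absorbance.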
# [12] = tested on: Klebsiella pneumoniae expressing VIM-1 (IHMA599644); format: cell-based; conditions: VIM-1 strain IHMA599644, with imipenem 1 μg/ml, 95% inhibition of bacterial growth
# Method in brief: as §2
# [13] = tested on: Escherichia coli expressing NDM-1 (CLB30005, CLB30016); format: cell-based; conditions: NDM-1 strain, with imipenem 1 μg/ml, 95% inhibition of bacterial growth
# Method in brief: as §2
# NDM-1 = NDM-1 (Klebsiella pneumoniae, UniProt C7C422); assay: biochemical; format: biochemical; conditions: fluorescence assay, CCF2-FA substrate, 1 pM enzyme, 2 hours at 25° C.; read-out: NDM-1 IC50
# Method in brief: (§3)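 Inhibitor was mixed with the metallo-β-lactamase and CCF2-FA. After 2 hours at 25° C, fluorescence of the coumarin–fluorescein cephalosporin substrate was read. IC50 was calculated with a 4-parameter fit.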
# IMP-1 = IMP-1 (Serratia marcescens, UniProt P52699); assay: biochemical; format: biochemical; conditions: fluorescence assay, CCF2-FA substrate, 2 pM enzyme, 2 hours at 25° C.; read-out: IMP-1 IC50
# Method in brief: as §3
# VIM-1 = VIM-1 (Pseudomonas aeruginosa (strain ATCC 15692 / DSM 22644 / CIP 104116 / JCM 14847 / LMG 12228 / 1C / PRS 101 / PAO1), UniProt A0A0F7KYQ8); assay: biochemical; conditions: fluorescence assay, CCF2-FA substrate, 30 pM enzyme, 2 hours at 25° C.; read-out: VIM-1 IC50
# Method in brief: as §3
# [14] = tested on: Pseudomonas aeruginosa MB9798 vs MB9799; conditions: fold difference between efflux+ (MB9798) and efflux− (MB9799) strains; imipenem at 2 μg/mL
# Method in brief: as §1
# [15] = MB 5919 Trans pFlp-Vim2 plasmid, OprD+, efflux+
# [16] = MB 9798 = MB 5919 Trans IMP1 plasmid, OprD+, efflux+
# [17] = MB 9799 = MB 5890 Trans IMP1 plasmid, OprD+, efflux−
# [18] = MB 5890 Trans pFlp-Vim2 plasmid, OprD+, efflux−
# [19] = MB9862 = MB 5890 Trans pFlp-Vim1, OprD+, efflux−
# [20] = MB 9861 = MB 5919 Trans pFlp-Vim1 plasmid, OprD+, efflux+
# Sequence of NDM-1 (C7C422 whole entry, looked up, species assumed): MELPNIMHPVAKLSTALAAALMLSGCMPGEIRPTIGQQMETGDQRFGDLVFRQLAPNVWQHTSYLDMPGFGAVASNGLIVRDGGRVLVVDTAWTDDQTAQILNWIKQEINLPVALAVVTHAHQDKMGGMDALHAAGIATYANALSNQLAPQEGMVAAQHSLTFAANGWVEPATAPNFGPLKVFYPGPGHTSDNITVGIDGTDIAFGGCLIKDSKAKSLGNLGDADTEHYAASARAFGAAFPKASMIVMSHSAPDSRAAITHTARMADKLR
# Sequence of IMP-1 (P52699 whole entry, looked up, species assumed): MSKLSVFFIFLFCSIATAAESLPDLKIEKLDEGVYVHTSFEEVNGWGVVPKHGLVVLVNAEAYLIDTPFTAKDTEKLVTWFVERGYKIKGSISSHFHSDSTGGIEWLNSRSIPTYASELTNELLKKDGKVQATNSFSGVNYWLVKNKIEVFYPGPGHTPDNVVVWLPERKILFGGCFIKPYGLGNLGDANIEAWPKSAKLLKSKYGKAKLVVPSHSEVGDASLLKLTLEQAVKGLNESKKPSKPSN
compound,measurement,setting,value
CC[C@H]1OC(=O)[C@H](C)[C@@H](O[C@H]2C[C@@](C)(OC)[C@@H](O)[C@H](C)O2)[C@H](C)[C@@H](O[C@@H]2O[C@H](C)C[C@H](N(C)C)[C@H]2O)[C@](C)(O)C[C@@H](C)CN(C)[C@H](C)[C@@H](O)[C@]1(C)O [Azithromycin],MIC,[1]; Pseudomonas aeruginosa,32 µg/mL
same,MIC,[2]; Pseudomonas aeruginosa,16 µg/mL
same,MIC,[3]; Pseudomonas aeruginosa,16 µg/mL
same,MIC,[4]; Pseudomonas aeruginosa,2 µg/mL
same,MIC,[5]; Pseudomonas aeruginosa,1 µg/mL
same,MIC,[6]; Pseudomonas aeruginosa,1 µg/mL
same,MIC,[7]; Pseudomonas aeruginosa,1 µg/mL
same,MIC,[8]; Pseudomonas aeruginosa,32 µg/mL
"CC(C)(O/N=C(\C(=O)N[C@@H]1C(=O)N2C(C(=O)[O-])=C(C[n+]3ccccc3)CS[C@H]12)c1csc(N)n1)C(=O)O [CAZ, ceftazidime]",MIC,[1]; [15],128 µg/mL
same,MIC,"[2]; MB 5919, OprD+, efflux+",1 µg/mL
same,MIC,[3]; [16],256 µg/mL
same,MIC,[4]; [17],256 µg/mL
same,MIC,[5]; [18],64 µg/mL
same,MIC,[6]; [19],>256 µg/mL
same,MIC,"[7]; MB 5890, OprD+, efflux−",0.5 µg/mL
same,MIC,[8]; [20],>256 µg/mL
"O=C(N[C@H](CO)[C@H](O)c1ccc([N+](=O)[O-])cc1)C(Cl)Cl [Chloroamphenicol, chloramphenicol]",MIC,[1]; Pseudomonas aeruginosa,> 64 µg/mL
same,MIC,[2]; Pseudomonas aeruginosa,> 64 µg/mL
same,MIC,[3]; Pseudomonas aeruginosa,> 64 µg/mL
same,MIC,[4]; Pseudomonas aeruginosa,1 µg/mL
same,MIC,[5]; Pseudomonas aeruginosa,1 µg/mL
same,MIC,[6]; Pseudomonas aeruginosa,2 µg/mL
same,MIC,[7]; Pseudomonas aeruginosa,1 µg/mL
same,MIC,[8]; Pseudomonas aeruginosa,> 64 µg/mL
"C[C@@H](CCN)NS(=O)(=O)c1ccc(-c2ccc(N)nc2)c(-c2nn[nH]n2)c1S(N)(=O)=O [Example 499, (S)-N1-(4-aminobutan-2-yl)-4-(6-aminopyridin-3-yl)-3-(1H-tetrazol-5-yl)benzene-1,2-disulfonamide]",Concentration of metallo-β-lactamase inhibitor which restores susceptibility of efflux + (MB9798) strain to imipenem,[9],0.7813
same,Concentration of metallo-β-lactamase inhibitor which restores susceptibility of efflux − (MB9799) strain to imipenem,[10],0.7813
same,Serratia marcescens MITC95,[11],1.563 µM
same,Klebsiella pneumoniae MITC95,[12],3.125 µM
same,Escherichia coli MITC95,[13],0.7813 µM
same,pIC50,NDM-1,9.26
same,pIC50,IMP-1,8.99
same,pIC50,VIM-1,9.54
same,Efflux ratio,[14],1.00
"NCCN1CC[C@@H](NS(=O)(=O)c2ccc(-c3ccc(N)nc3)c(-c3nn[nH]n3)c2S(N)(=O)=O)C1 [Example 500, (R)—N1-(1-(2-aminoethyl)pyrrolidin-3-yl)-4-(6-aminopyridin-3-yl)-3-(2H-tetrazol-5-yl)benzene-1,2-disulfonamide]",Concentration of metallo-β-lactamase inhibitor which restores susceptibility of efflux + (MB9798) strain to imipenem,[9],1.563
same,Concentration of metallo-β-lactamase inhibitor which restores susceptibility of efflux − (MB9799) strain to imipenem,[10],1.563
same,Serratia marcescens MITC95,[11],1.563 µM
same,Klebsiella pneumoniae MITC95,[12],3.125 µM
same,Escherichia coli MITC95,[13],1.563 µM
same,pIC50,NDM-1,10.46
same,pIC50,IMP-1,9.78
same,pIC50,VIM-1,10.15
same,Efflux ratio,[14],1.00
"C[C@@H](O)[C@H]1C(=O)N2C(C(=O)O)=C(SCCN=CN)C[C@H]12 [Imipenem, imipenem]",MIC,[1]; [15],>64 µg/mL
same,MIC,"[2]; MB 5919, OprD+, efflux+",4 µg/mL
same,MIC,[3]; [16],64 µg/mL
same,MIC,[4]; [17],32 µg/mL
same,MIC,[5]; [18],32 µg/mL
same,MIC,[6]; [19],64 µg/mL
same,MIC,"[7]; MB 5890, OprD+, efflux−",2 µg/mL
same,MIC,[8]; [20],>64 µg/mL
"C[C@@H](O)[C@H]1C(=O)N2C(C(=O)O)=C(S[C@@H]3CN[C@H](C(=O)N(C)C)C3)[C@H](C)[C@H]12 [Meropenem, meropenem]",MIC,[1]; [15],>64 µg/mL
same,MIC,"[2]; MB 5919, OprD+, efflux+",2 µg/mL
same,MIC,[3]; [16],>64 µg/mL
same,MIC,[4]; [17],64 µg/mL
same,MIC,[5]; [18],32 µg/mL
same,MIC,[6]; [19],64 µg/mL
same,MIC,"[7]; MB 5890, OprD+, efflux−",0.5 µg/mL
same,MIC,[8]; [20],>64 µg/mL
"CCN1CCN(C(=O)N[C@@H](C(=O)N[C@@H]2C(=O)N3[C@@H]2SC(C)(C)[C@@H]3C(=O)O)c2ccccc2)C(=O)C1=O [Piperalln, piperacillin]",MIC,[1]; [15],>256 µg/mL
same,MIC,"[2]; MB 5919, OprD+, efflux+",2 µg/mL
same,MIC,[3]; [16],4 µg/mL
same,MIC,[4]; [17],4 µg/mL
same,MIC,[5]; [18],128 µg/mL
same,MIC,[6]; [19],128 µg/mL
same,MIC,"[7]; MB 5890, OprD+, efflux−",1 µg/mL
same,MIC,[8]; [20],>256 µg/mL
